What all share (experiment): inhibition of tumour cell growth, NCI panel, 48 h
The test system of assay [1] is SK-MEL-5.
Assay [2] relates to DU-145.
Assay [3] concerns UACC-257.
Assay [4] deals with SN12C.
The subject of assay [5] is NCI-H460.
Assay [6] concerns OVCAR-8.
Assay [7] has as its system HCT-15.
Assay [8] relates to OVCAR-4.
Assay [9] deals with EKVX.
The subject of assay [10] is SW-620.
Assay [11] deals with MDA-N.
Assay [12] relates to Malme-3M.
For assay [13], the system named is PC-3.
The subject of assay [14] is RXF 393.
Assay [15] deals with SK-OV-3.
In assay [16] the test system is SK-MEL-2.
In assay [17] the test system is UO-31.
Assay [18] relates to T47D.
Assay [19] relates to 786-0.
Assay [20] relates to HCC 2998.

Molecules are shown by their SMILES.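 96-well plates; 48 h exposure; 5 concentrations. Endpoints by linear interpolation between flanking doses. Not reached: highest tested concentration assigned. GI50 is the concentration that inhibits growth by half.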 The source made the active and inactive calls. No stated cut-off is given here; in the data, active = GI50 up to about 1.1 µM and inactive = higher.

Take `NCCCC(N)C(=O)O` (stereo not given): the GI50 in assay [1], in assay [2], in assay [3], in assay [4], in [5] and in assay [6] was > 100 µM (inactive) each time. Also, the GI50 was above 100 µM in [7]; > 100 µM (inactive) in assay [8]; > 100 µM (inactive) in [9]; > 100 µM (inactive) in assay [10]; > 100 µM (inactive) in [11]; > 100 µM (inactive) in assay [12]. Besides, the GI50 in assay [13], in assay [14], in assay [15], in assay [16], in assay [17] and in assay [18] was > 100 µM (inactive) in each case. In assay [19], the GI50 was > 100 µM (inactive).
With `COC(=O)c1ccccc1/C=C1\Cc2ccc(C)c(C)c2C1=O`, the GI50 in assay [1], in assay [2], in assay [3], in assay [4], in [5] and in [6] was > 100 µM (inactive) throughout. Moreover, the GI50 in assay [7] is above 100 µM; in assay [8] it was > 100 µM (inactive); in assay [9], > 100 µM (inactive); in assay [10], > 100 µM (inactive); in [20], > 100 µM (inactive); in assay [11], > 100 µM (inactive). The GI50 in assay [12], in [13], in assay [14], in [16], in assay [17] and in [18] was > 100 µM (inactive) in each case. For the same compound, the GI50 in assay [19] is 51.4 µM (inactive).
As for `C/C1=C/C(C)CC(C)OC(=O)C(C)NC(=O)C(Cc2ccc(O)c(I)c2)N(C)C(=O)C(C)NC(=O)C(C)C1` (stereo not given), the GI50 was < 0.0133 µM (active) in [1]; 0.0302 µM (active) in assay [2]; < 0.01 µM (active) in assay [3]; < 0.0249 µM (active) in assay [4]; < 0.01 µM (active) in assay [5]; 0.0354 µM (active) in assay [6]. The GI50 in [7] is below 0.0164 µM; in assay [8], < 0.01 µM (active); in assay [9], 0.0262 µM (active); in assay [10], < 0.01 µM (active); in [20], < 0.01 µM (active); in assay [11], < 0.01 µM (active). Moreover, the GI50 in assay [12] was < 0.0242 µM (active); in [13], < 0.01 µM (active); in assay [14], < 0.01 µM (active); in assay [15], < 0.01 µM (active); in assay [17] it was 0.0127 µM (active); in assay [18], 0.0653 µM (active). Also, in [19], the GI50 was < 0.01 µM (active).
Take `CCOC(=O)CSc1nnc2cc(CN3CCCC3)c(-c3ccc(Cl)cc3)nn12`: the GI50 in [1] is > 100 µM (inactive); in assay [2] it was 71.6 µM (inactive); in assay [3] it was 91.4 µM (inactive); in assay [4], > 100 µM (inactive); in [5], 48.4 µM (inactive); in [6], > 100 µM (inactive). The GI50 is above 100 µM in [7]; 33.6 µM (inactive) in assay [8]; > 100 µM (inactive) in assay [9]; > 100 µM (inactive) in assay [10]; 85.9 µM (inactive) in [11]; > 100 µM (inactive) in assay [12]. Besides, the GI50 in assay [13] was > 100 µM (inactive); in assay [14] it was 86.5 µM (inactive); in assay [15], > 100 µM (inactive); in assay [16], > 100 µM (inactive); in [17], > 100 µM (inactive); in [18], 57.5 µM (inactive). For the same compound, the GI50 in [19] is 92.3 µM (inactive).
In the case of `COC(=O)Nc1nc2cc(NS(=O)(=O)c3cccs3)ccc2[nH]1`, the GI50 in [1] was 18.6 µM (inactive); in assay [2] it was 47.3 µM (inactive); in assay [4], 39.1 µM (inactive); in assay [5] it was 32.2 µM (inactive); in assay [6] it was 36.4 µM (inactive); in assay [7], 14.3 µM. For the same compound, the GI50 is 38.9 µM (inactive) in [8]; 22.4 µM (inactive) in [9]; 20.7 µM (inactive) in [10]; 3.56 µM (inactive) in assay [11]; 10.4 µM (inactive) in assay [12]; 33.9 µM (inactive) in assay [13]. Moreover, the GI50 in assay [14] is 19.3 µM (inactive); in assay [15], 28.4 µM (inactive); in assay [16], 76.6 µM (inactive); in assay [17] it was 30.1 µM (inactive); in assay [18] it was 28.7 µM (inactive); in [19] it was 34.3 µM (inactive).
As to `COC(=O)c1cc(C)ccc1/C=C1\Cc2c(C)cc(C)cc2C1=O`, the GI50 in assay [1] was > 100 µM (inactive); in [2], > 100 µM (inactive); in assay [3], > 18.3 µM (inactive); in assay [4], 69 µM (inactive); in assay [5], > 85.7 µM (inactive); in assay [6] it was 47 µM (inactive). Besides, the GI50 in assay [7] was above 100 µM; in assay [8], 24.4 µM (inactive); in [9], 41.5 µM (inactive); in assay [10], > 100 µM (inactive); in assay [20], > 100 µM (inactive); in assay [11] it was 25.5 µM (inactive). Also, the GI50 in assay [12] is > 63.4 µM (inactive); in [13] it was > 39.8 µM (inactive); in [14], 16.1 µM (inactive); in assay [16], 22.8 µM (inactive); in [17] it was 12.3 µM (inactive); in assay [18] it was > 97.3 µM (inactive). For the same compound, in assay [19], the GI50 was 14 µM (inactive).
As for `CCC1c2[nH]c3ccccc3c2C[C@H]2C(=O)NC(Cc3c[nH]c4ccccc34)C(=O)N12` (stereo not given in full), the GI50 in [1] is 17.5 µM (inactive); in [2] it was 37.7 µM (inactive); in assay [3] it was 19.4 µM (inactive); in assay [4], 22.5 µM (inactive); in assay [6], 32.7 µM (inactive); in assay [7] it was 28.5 µM. In addition, the GI50 in assay [8] was 29.9 µM (inactive); in assay [9], 32 µM (inactive); in assay [10], 38.5 µM (inactive); in assay [11] it was 24.2 µM (inactive); in assay [12], 18.4 µM (inactive); in assay [13], 18.7 µM (inactive). For the same compound, the GI50 is 17.4 µM (inactive) in assay [14]; 34 µM (inactive) in [15]; 20 µM (inactive) in assay [16]; 27.7 µM (inactive) in assay [17]; 26.4 µM (inactive) in assay [18]; 23.4 µM (inactive) in assay [19].
Regarding `COc1cc(COC(=O)N(CC(=O)O)c2ccccc2)c([N+](=O)[O-])cc1OC`, the GI50 in [1], in assay [2], in assay [3], in assay [4], in assay [5] and in assay [6] was > 100 µM (inactive) each time. Also, the GI50 in assay [7] was above 100 µM; in assay [9], > 100 µM (inactive); in [10], > 100 µM (inactive); in [20], > 100 µM (inactive); in [11], > 100 µM (inactive); in assay [12] it was > 100 µM (inactive). Further, the GI50 in assay [13], in assay [14], in [15], in [17], in [18] and in [19] was > 100 µM (inactive) throughout.
Consider `Cc1ccc(C)c(NC(=O)NCc2ccc(Cl)cc2)c1`, for which the GI50 is > 70.5 µM (inactive) in [1]; > 66.7 µM (inactive) in [2]; 39.7 µM (inactive) in [3]; 36.3 µM (inactive) in [4]; > 85.3 µM (inactive) in assay [5]; 34.9 µM (inactive) in assay [6]. The GI50 in [7] was above 100 µM; in assay [8], 20.1 µM (inactive); in assay [9], 97.9 µM (inactive); in assay [10], 50.7 µM (inactive); in assay [11], > 100 µM (inactive); in assay [12], 26.8 µM (inactive). Moreover, the GI50 was > 100 µM (inactive) in assay [13]; 8.89 µM (inactive) in assay [14]; 13.8 µM (inactive) in assay [15]; > 63 µM (inactive) in assay [16]; 31 µM (inactive) in assay [17]; 43.7 µM (inactive) in assay [18]. Also, the GI50 in assay [19] is 20.6 µM (inactive).
`C=C1C(=O)O[C@H]2/C=C(/C)C3=CC(=O)[C@@](C)(C[C@@H](OC(=O)/C(C)=C\C)C12)O3` (stereo not given in full): the GI50 in assay [1] is 1.03 µM (active); in assay [2], 2.58 µM (inactive); in assay [3], 1.73 µM (inactive); in assay [4], 1.36 µM (inactive); in assay [5], 2.35 µM (inactive); in assay [6], 0.863 µM (active). The GI50 in assay [7] is 0.216 µM; in assay [8] it was 3.95 µM (inactive); in assay [10] it was 0.128 µM (active); in [20], 1.59 µM (inactive); in assay [11], 0.684 µM (active); in assay [13], 2.48 µM (inactive). Further, the GI50 in assay [14] is 0.265 µM (active); in [15], 12.2 µM (inactive); in assay [16] it was 3.02 µM (inactive); in assay [17], 1.21 µM (inactive); in assay [18] it was 0.811 µM (active); in assay [19], 0.426 µM (active).
For `COc1cc2c(cc1O)CC[n+]1cc3c(OC)c(OC)ccc3cc1-2`, the GI50 in assay [1] is 51.1 µM (inactive); in [2] it was > 100 µM (inactive); in assay [3], 90.4 µM (inactive); in [4] it was > 100 µM (inactive); in [5], > 100 µM (inactive); in [6] it was > 100 µM (inactive). Further, the GI50 in assay [7] is above 100 µM; in [8] it was > 100 µM (inactive); in assay [9] it was > 100 µM (inactive); in assay [10], > 100 µM (inactive); in assay [20], > 100 µM (inactive); in assay [11], > 100 µM (inactive). The GI50 is 59.6 µM (inactive) in [12]; > 100 µM (inactive) in assay [13]; > 100 µM (inactive) in assay [15]; > 100 µM (inactive) in assay [16]; > 100 µM (inactive) in assay [17]; 94.4 µM (inactive) in assay [18]. Further, the GI50 in [19] is > 100 µM (inactive).

Source of the values: ChEMBL document CHEMBL1201862, “PubChem BioAssay data set” (2004).
